Assay results as given in the supplement of paper PMC10307832.

Columns and labels:
Assay in all cases: relative viability (nuclei count vs DMSO), 5 days (fraction); higher = more cells survive
NCI-H322M = test system: NCI-H322M
Outline: (§1)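 The day after seeding in 1536-well plates, lung cancer cell lines were treated by pin tool with a single drug, or with a fixed anchor-drug dose together with five library-drug doses (not always all listed) in √10 steps. After 5 days, a combined fix-and-stain solution (final 0.05% Triton X-100, 1% formaldehyde, 1 ug/ml Hoechst) was added. Nuclei counted on 4× images gave relative viability as treated counts over vehicle counts, reported as the median of duplicate plates.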

NCI-H2170 = test system: NCI-H2170
Outline: as §1

NCI-H441 = test system: NCI-H441
Outline: as §1

NCI-H1650 = test system: NCI-H1650
Outline: as §1

NCI-H2023 = test system: NCI-H2023
Outline: as §1

201T = test system: 201T
Outline: as §1

EPLC-272H = test system: EPLC-272H
Outline: as §1

HCC-15 = test system: HCC-15
Outline: as §1

NCI-H2347 = test system: NCI-H2347
Outline: as §1

SW 900 = test system: SW 900
Outline: as §1

COR-L23 = test system: COR-L23
Outline: as §1

NCI-H647 = test system: NCI-H647
Outline: as §1

H3255 = test system: H3255
Outline: as §1

NCI-H520 = test system: NCI-H520
Outline: as §1

UMC-11 = test system: UMC-11
Outline: as §1

NCI-H2405 = test system: NCI-H2405
Outline: as §1

LOU-NH91 = test system: LOU-NH91
Outline: as §1

NCI-H1734 = test system: NCI-H1734
Outline: as §1

NCI-H1793 = test system: NCI-H1793
Outline: as §1

PC-14 = test system: PC-14
Outline: as §1

NCI-H3122 = test system: NCI-H3122
Outline: as §1

CC(=O)O[C@@]12CO[C@@H]1C[C@H](O)[C@@]1(C)C(=O)[C@H](O)C3=C(C)[C@@H](OC(=O)[C@H](O)[C@@H](NC(=O)OC(C)(C)C)c4ccccc4)C[C@@](O)([C@@H](OC(=O)c4ccccc4)[C@H]21)C3(C)C [Docetaxel] + Nc1ncn([C@H]2C[C@H](O)[C@@H](CO)O2)c(=O)n1 [Decitabine] (partner 2 µM)
relative viability (NCI-H322M; first compound 0.0002 µM): 0.679
relative viability (NCI-H322M; first compound 0.000632 µM): 0.609
relative viability (NCI-H322M; first compound 0.002 µM): 0.613
relative viability (NCI-H322M; first compound 0.006325 µM): 0.653
relative viability (NCI-H322M; first compound 0.02 µM): 0.553
relative viability (NCI-H2170; first compound 0.0002 µM): 0.472
relative viability (NCI-H2170; first compound 0.000632 µM): 0.437
relative viability (NCI-H2170; first compound 0.002 µM): 0.371
relative viability (NCI-H2170; first compound 0.006325 µM): 0.172
relative viability (NCI-H2170; first compound 0.02 µM): 0.151
relative viability (NCI-H441; first compound 0.0002 µM): 0.25
relative viability (NCI-H441; first compound 0.000632 µM): 0.234
relative viability (NCI-H441; first compound 0.002 µM): 0.178
relative viability (NCI-H441; first compound 0.006325 µM): 0.2
relative viability (NCI-H441; first compound 0.02 µM): 0.163
relative viability (NCI-H1650; first compound 0.0002 µM): 0.376
relative viability (NCI-H1650; first compound 0.000632 µM): 0.323
relative viability (NCI-H1650; first compound 0.002 µM): 0.246
relative viability (NCI-H1650; first compound 0.006325 µM): 0.2
relative viability (NCI-H1650; first compound 0.02 µM): 0.193
relative viability (NCI-H2023; first compound 0.0002 µM): 0.233
relative viability (NCI-H2023; first compound 0.000632 µM): 0.161
relative viability (NCI-H2023; first compound 0.002 µM): 0.102
relative viability (NCI-H2023; first compound 0.006325 µM): 0.0989
relative viability (NCI-H2023; first compound 0.02 µM): 0.0701
relative viability (201T; first compound 0.0002 µM): 0.782
relative viability (201T; first compound 0.000632 µM): 0.778
relative viability (201T; first compound 0.002 µM): 0.701
relative viability (201T; first compound 0.006325 µM): 0.47
relative viability (201T; first compound 0.02 µM): 0.331
relative viability (EPLC-272H; first compound 0.0002 µM): 0.364
relative viability (EPLC-272H; first compound 0.000632 µM): 0.308
relative viability (EPLC-272H; first compound 0.002 µM): 0.179
relative viability (EPLC-272H; first compound 0.006325 µM): 0.127
relative viability (EPLC-272H; first compound 0.02 µM): 0.0741
relative viability (HCC-15; first compound 0.0002 µM): 0.58
relative viability (HCC-15; first compound 0.000632 µM): 0.338
relative viability (HCC-15; first compound 0.002 µM): 0.217
relative viability (HCC-15; first compound 0.02 µM): 0.191
relative viability (NCI-H2347; first compound 0.0002 µM): 0.637
relative viability (NCI-H2347; first compound 0.000632 µM): 0.633
relative viability (NCI-H2347; first compound 0.002 µM): 0.644
relative viability (NCI-H2347; first compound 0.006325 µM): 0.51
relative viability (NCI-H2347; first compound 0.02 µM): 0.473
relative viability (SW 900; first compound 0.0002 µM): 0.485
relative viability (SW 900; first compound 0.000632 µM): 0.344
relative viability (SW 900; first compound 0.002 µM): 0.323
relative viability (SW 900; first compound 0.006325 µM): 0.296
relative viability (SW 900; first compound 0.02 µM): 0.212
relative viability (COR-L23; first compound 0.0002 µM): 0.39
relative viability (COR-L23; first compound 0.000632 µM): 0.443
relative viability (COR-L23; first compound 0.002 µM): 0.291
relative viability (COR-L23; first compound 0.02 µM): 0.121
relative viability (NCI-H647; first compound 0.000632 µM): 0.468
relative viability (NCI-H647; first compound 0.002 µM): 0.171
relative viability (NCI-H647; first compound 0.006325 µM): 0.153
relative viability (NCI-H647; first compound 0.02 µM): 0.109
relative viability (H3255; first compound 0.0002 µM): 0.734
relative viability (H3255; first compound 0.000632 µM): 0.566
relative viability (H3255; first compound 0.002 µM): 0.335
relative viability (H3255; first compound 0.006325 µM): 0.31
relative viability (H3255; first compound 0.02 µM): 0.27
relative viability (NCI-H520; first compound 0.0002 µM): 0.454
relative viability (NCI-H520; first compound 0.000632 µM): 0.465
relative viability (NCI-H520; first compound 0.002 µM): 0.333
relative viability (NCI-H520; first compound 0.006325 µM): 0.249
relative viability (UMC-11; first compound 0.0002 µM): 0.399
relative viability (UMC-11; first compound 0.000632 µM): 0.613
relative viability (UMC-11; first compound 0.002 µM): 0.401
relative viability (UMC-11; first compound 0.006325 µM): 0.345
relative viability (UMC-11; first compound 0.02 µM): 0.238
relative viability (NCI-H2405; first compound 0.0002 µM): 0.724
relative viability (NCI-H2405; first compound 0.000632 µM): 0.75
relative viability (NCI-H2405; first compound 0.002 µM): 0.663
relative viability (NCI-H2405; first compound 0.006325 µM): 0.498
relative viability (NCI-H2405; first compound 0.02 µM): 0.341
relative viability (LOU-NH91; first compound 0.0002 µM): 0.822
relative viability (LOU-NH91; first compound 0.000632 µM): 0.841
relative viability (LOU-NH91; first compound 0.002 µM): 0.621
relative viability (LOU-NH91; first compound 0.006325 µM): 0.518
relative viability (LOU-NH91; first compound 0.02 µM): 0.379
relative viability (NCI-H1734; first compound 0.0002 µM): 0.492
relative viability (NCI-H1734; first compound 0.000632 µM): 0.431
relative viability (NCI-H1734; first compound 0.002 µM): 0.359
relative viability (NCI-H1734; first compound 0.006325 µM): 0.307
relative viability (NCI-H1734; first compound 0.02 µM): 0.218
relative viability (NCI-H1793; first compound 0.0002 µM): 0.532
relative viability (NCI-H1793; first compound 0.000632 µM): 0.359
relative viability (NCI-H1793; first compound 0.002 µM): 0.278
relative viability (NCI-H1793; first compound 0.006325 µM): 0.2
relative viability (NCI-H1793; first compound 0.02 µM): 0.18
relative viability (PC-14; first compound 0.0002 µM): 0.175
relative viability (PC-14; first compound 0.000632 µM): 0.107
relative viability (PC-14; first compound 0.002 µM): 0.0764
relative viability (PC-14; first compound 0.006325 µM): 0.0588
relative viability (PC-14; first compound 0.02 µM): 0.0313
relative viability (NCI-H3122; first compound 0.0002 µM): 0.441
relative viability (NCI-H3122; first compound 0.000632 µM): 0.409
relative viability (NCI-H3122; first compound 0.002 µM): 0.265
relative viability (NCI-H3122; first compound 0.006325 µM): 0.182
relative viability (NCI-H3122; first compound 0.02 µM): 0.126
